Results published in patent US20220202610A1, “CONTACT LENS WITH SUSTAINED RELEASE PROPERTY” (priority 2020, published 2022).

Legend:
[1] = Release of lens drug (dexamethasone): drug loading, moist heat sterilization and release in saline, HPLC; format: physicochemical; details: 121° C., 30 minutes
Description: (§1) Sampling time point: 0, 2, 4 and 8 hours (N=3)
(1) Single drug-loaded lens was placed in a 5 mL ampoule. 1 mL of saline was added as a release medium. The lens was placed in a shake oven (MS Hybridization Shaking Oven, MO-AOR, Major Science), and a drug release test was conducted under the operating parameters of 35° C. and 100 rpm. The drug release solution was replaced with fresh saline every 2 hours.
(2) The drug content in the lens preservation solution and the drug content in the lens were analyzed by HPLC with RP-C18 column. The extraction method of drug (Dexamethasone, DEX) in the lens: one lens was taken out of the preservation solution. Lens surface moisture was fully absorbed with a lens cleaning paper. The one lens was immersed in 1 mL of methanol to stand for 8 hours to extract the drug. Then the drug content was analyzed by HPLC.

[2] = Release of lens drug (menthol): drug loading, moist heat sterilization and release in saline, HPLC; format: physicochemical; details: 121° C., 30 minutes
Description: as §1
First group: P-2.5HPC7/P6k-38CL
(1) Single drug-loaded lens was placed in a 5 mL ampoule. 1 mL of saline was added as a release medium. The lens was placed in a shake oven (MS Hybridization Shaking Oven, MO-AOR, Major Science), and a drug release test was conducted under the operating parameters of 35° C. and 100 rpm. No release solution was replaced throughout. Sampling: the lens was taken out at each time point. The drug was extracted with ethanol (98 wt %). The drug content was analyzed by HPLC with RP-C18 column. After the lens was taken out, no drug release test was performed.
(2) The extraction method of menthol in the lens: one lens was taken out of the ampoule used for the release test. Lens surface moisture was fully absorbed with a lens cleaning paper. The one lens was immersed in 1 mL of ethanol (98 wt %) to stand for 8 hours to extract the drug. Then the drug content was analyzed by HPLC.

Compound | loss caused by the moist heat sterilization [1] | menthol in the lens preservation solution after the moist heat sterilization [2]
Cn1c(=O)c2c(ncn2C)n(C)c1=O [caffeine] | hardly causes the loss | –
CC1CCC(C(C)C)C(O)C1 (centres unmarked) [menthol] | – | most of the menthol in the lens preservation solution escapes
